{"source": "patent US20220362213A1", "about": "“METHODS FOR TREATING POST ENDOSCOPIC RETROGRADE CHOLANGIOPANCREATOGRAPHY PANCREATITIS” (priority 2021, published 2022)", "origin": "cited, not measured here", "key": {"post-ERCP pancreatitis [1]": {"system": "post-ERCP pancreatitis", "conditions": "for preventing post-ERCP pancreatitis: two large controlled trials, pharmacologic prevention in high-risk patients"}, "post-ERCP pancreatitis [2]": {"system": "post-ERCP pancreatitis", "conditions": "single-dose rectal; meta-analysis of preliminary studies"}}, "data": [{"molecule": "C[C@@H](O)[C@@H]1NC(=O)[C@H](CCCCN)NC(=O)[C@@H](Cc2c[nH]c3ccccc23)NC(=O)[C@H](Cc2ccccc2)NC(=O)[C@@H](NC(=O)[C@H](N)Cc2ccccc2)CSSC[C@@H](C(=O)N[C@H](CO)[C@@H](C)O)NC1=O", "note": "[octreotide]", "values": [{"measurement": "hyperamylasemia", "setting": "post-ERCP pancreatitis [1]; after ERCP", "result": "reduces hyperamylasemia"}, {"measurement": "clinical course of post-ERCP pancreatitis", "setting": "post-ERCP pancreatitis [1]; human, in vivo", "result": "has not been shown to alter the clinical course"}, {"measurement": "preventing post-ERCP pancreatitis", "setting": "post-ERCP pancreatitis [1]", "result": "ineffective"}]}, {"molecule": "COc1ccc2c(c1)c(CC(=O)O)c(C)n2C(=O)c1ccc(Cl)cc1", "note": "[indomethacin]", "values": [{"measurement": "protective effects in post-ERCP pancreatitis", "setting": "post-ERCP pancreatitis [2]", "result": "benefit"}]}, {"molecule": "CCOC(=O)c1ccc(OC(=O)CCCCCNC(=N)N)cc1", "note": "[gabexate]", "values": [{"measurement": "reducing the frequency of post-ERCP pancreatitis", "setting": "post-ERCP pancreatitis [1]; prophylaxis, meta-analysis of 28 clinical trials", "result": "effective"}, {"measurement": "preventing post-ERCP pancreatitis", "setting": "post-ERCP pancreatitis [1]", "result": "ineffective"}]}, {"molecule": "secretin", "values": [{"measurement": "incidence of post-ERCP pancreatitis", "setting": "post-ERCP pancreatitis [1]; retrospective review of 4833 ERCP procedures, patients without pancreas divisum", "result": "might decrease the incidence"}]}, {"molecule": "O=C(O)Cc1ccccc1Nc1c(Cl)cccc1Cl", "note": "[diclofenac]", "values": [{"measurement": "protective effects in post-ERCP pancreatitis", "setting": "post-ERCP pancreatitis [2]", "result": "benefit"}]}]}
